# Reference: EPA's ToxRefDB 2
# What was measured:
# rabbit [1] = settings: Prenatal developmental toxicity study, Injection, Intravenous, dose end: 18 GD
# rat [2] = settings: Sub-acute repeat dose toxicity, Injection, Intravenous, dose end: 5 day, group: systemic
# rabbit [3] = settings: Sub-acute repeat dose toxicity; Injection; Intravenous; dose end: 5 day; group: systemic; systemic / in life observation / clinical signs / altered breathing rate + systemic / in life observation / clinical signs / labored …
# rat [4] = settings: Sub-acute repeat dose toxicity; Oral; Gavage/Intubation; dose end: 36 day; group: systemic; systemic / in life observation / body weight / body weight + systemic / in life observation / food consumption / food consumption
# rat [5] = settings: Chronic toxicity; sprague dawley; Oral; Gavage/Intubation; dose end: 182 day; group: systemic; systemic / clinical chemistry / [other] / [other] + systemic / clinical chemistry / cholesterol / cholesterol + systemic / clinical …
# rat [6] = settings: Fertility (Segment I), Oral, Gavage/Intubation, dose end: 1 generation
# dog [7] = settings: Chronic toxicity, beagle, Oral, Gavage/Intubation, dose end: 272 day, group: systemic
# rat [8] = settings: Sub-acute repeat dose toxicity; sprague dawley; Oral; Gavage/Intubation; dose end: 5 day; group: systemic; systemic / clinical chemistry / aspartate aminotransferase (ast/sgot) / aspartate aminotransferase (ast/sgot) + systemic / in life …
# rabbit [9] = settings: Prenatal developmental toxicity study, Oral, Gavage/Intubation, dose end: 20 GD, group: maternal
# rat [10] = settings: Prenatal developmental toxicity study, Oral, Gavage/Intubation, dose end: 21 GD
# rat [11] = settings: Sub-acute repeat dose toxicity, sprague dawley, Oral, Gavage/Intubation, dose end: 15 day, group: systemic
# rabbit [12] = settings: Prenatal developmental toxicity study, Oral, Gavage/Intubation, dose end: 20 GD, group: maternal; remark: listed apart in the source
# rat [13] = settings: Sub-acute repeat dose toxicity, sprague dawley, Oral, Gavage/Intubation, dose end: 15 day, group: systemic; remark: listed apart in the source
# rat [14] = settings: Subchronic oral toxicity in rodents, sprague dawley, Gavage/Intubation, dose end: 93 day, group: systemic
# rat [15] = settings: Prenatal developmental toxicity study, Oral, Gavage/Intubation, dose end: 18 GD
# dog [16] = settings: Sub-acute repeat dose toxicity, beagle, Oral, Gavage/Intubation, dose end: 22 day, group: systemic
# dog [17] = settings: Subchronic oral toxicity in nonrodent, beagle, Gavage/Intubation, dose end: 94 day, group: systemic
# rabbit [18] = settings: Sub-acute repeat dose toxicity, new zealand white, Oral, Gavage/Intubation, dose end: 5 day, group: systemic
# [19] = group: developmental, developmental / developmental malformation / bone / incomplete ossification + systemic / in life observation / body weight / fetal weight
# [20] = group: maternal, systemic / in life observation / body weight / body weight + systemic / in life observation / body weight / body weight gain + systemic / in…
# [21] = systemic / pathology microscopic / ovary / degeneration + systemic / clinical chemistry / albumin / albumin + systemic / clinical chemistry…
# [22] = group: maternal, reproductive / reproductive performance / estrous cycle / corpora lutea + reproductive / reproductive performance / implantations / …
# [23] = group: parental, systemic / in life observation / body weight / body weight + systemic / in life observation / body weight / body weight gain + systemic / in…
# [24] = systemic / clinical chemistry / alkaline phosphatase (alp/alk) / alkaline phosphatase (alp/alk) + systemic / in life observation / clinical …
# [25] = systemic / in life observation / clinical signs / altered breathing rate + systemic / in life observation / clinical signs / convulsions + …
# [26] = group: developmental, systemic / in life observation / body weight / fetal weight
# [27] = group: maternal, systemic / in life observation / body weight / body weight gain + systemic / in life observation / food consumption / food consumption + …
# [28] = systemic / clinical chemistry / [other] / [other] + systemic / clinical chemistry / cytochrome p450, nos / cytochrome p450, nos + systemic…
# [29] = systemic / in life observation / body weight / body weight gain + systemic / in life observation / food consumption / food consumption + …
# [30] = systemic / in life observation / mortality / mortality + systemic / in life observation / body weight / body weight gain + systemic / in …
# [31] = systemic / in life observation / body weight / body weight + systemic / in life observation / clinical signs / alopecia + systemic / in life…
# [32] = systemic / in life observation / body weight / body weight gain + systemic / clinical chemistry / [other] / [other] + systemic / clinical …
# [33] = group: maternal, systemic / in life observation / body weight / body weight gain + systemic / in life observation / clinical signs / alopecia + systemic / in…
# [34] = systemic / organ weight / liver / absolute
# [35] = systemic / organ weight / liver / absolute + systemic / clinical chemistry / [other] / [other] + systemic / clinical chemistry / alkaline …
# [36] = systemic / in life observation / body weight / body weight + systemic / in life observation / clinical signs / altered breathing rate + …
structure (smiles),measurement,setting,value
NC(N)=NC(=O)c1cnn(-c2cccc3ncccc23)c1C1CC1 [Zoniporide],LEL,rabbit [1]; [19],100 mg/kg/day
same,LOAEL,rabbit [1]; [19],> 100 mg/kg/day
same,NOAEL,rabbit [1]; [19],≥ 100 mg/kg/day
same,LEL,rabbit [1]; [20],100 mg/kg/day
same,LOAEL,rabbit [1]; [20],> 100 mg/kg/day
same,NEL,rabbit [1]; [20],30 mg/kg/day
same,NOAEL,rabbit [1]; [20],≥ 100 mg/kg/day
same,NEL,rat [2]; systemic / pathology microscopic / blood vessel / inflammation + systemic / pathology microscopic / blood vessel / necrosis,< 25 mg/kg/day
same,LOAEL,rat [2]; [21],> 250 mg/kg/day
same,NOAEL,rat [2]; [21],≥ 250 mg/kg/day
same,LOAEL,rabbit [3],> 250 mg/kg/day
same,NEL,rabbit [3],50 mg/kg/day
same,NOAEL,rabbit [3],≥ 250 mg/kg/day
COc1ccc(OC(F)(F)F)cc1CN[C@H]1CCCN[C@H]1c1ccccc1,LEL,rat [4],50 mg/kg/day
same,LOAEL,rat [4],> 50 mg/kg/day
same,NEL,rat [4],20 mg/kg/day
same,NOAEL,rat [4],≥ 50 mg/kg/day
same,LEL,rat [5],30 mg/kg/day
same,LOAEL,rat [5],> 100 mg/kg/day
same,NEL,rat [5],5 mg/kg/day
same,NOAEL,rat [5],≥ 100 mg/kg/day
same,LEL,rat [6]; [22],150 mg/kg/day
same,LOAEL,rat [6]; [22],> 150 mg/kg/day
same,NEL,rat [6]; [22],50 mg/kg/day
same,NOAEL,rat [6]; [22],≥ 150 mg/kg/day
same,LOAEL,rat [6]; [23],> 150 mg/kg/day
same,NEL,rat [6]; [23],5 mg/kg/day
same,NOAEL,rat [6]; [23],≥ 150 mg/kg/day
same,LEL,"rat [6]; group: parental, systemic / in life observation / body weight / body weight gain + systemic / in life observation / clinical signs / alopecia + systemic / in…",50 mg/kg/day
same,LOAEL,dog [7]; [24],> 20 mg/kg/day
same,NOAEL,dog [7]; [24],≥ 20 mg/kg/day
same,LEL,dog [7]; systemic / in life observation / clinical signs / salivation,6 mg/kg/day
same,LEL,rat [8],400 mg/kg/day
same,LOAEL,rat [8],> 1000 mg/kg/day
same,NEL,rat [8],< 400 mg/kg/day
same,NOAEL,rat [8],≥ 1000 mg/kg/day
same,LOAEL,rabbit [9]; [25],> 75 mg/kg/day
same,NEL,rabbit [9]; [25],25 mg/kg/day
same,NOAEL,rabbit [9]; [25],≥ 75 mg/kg/day
same,LEL,rabbit [9]; systemic / in life observation / food consumption / food consumption,50 mg/kg/day
same,LEL,rat [10]; [26],100 mg/kg/day
same,LOAEL,rat [10]; [26],> 100 mg/kg/day
same,NOAEL,rat [10]; [26],≥ 100 mg/kg/day
same,LEL,rat [10]; [27],30 mg/kg/day
same,LOAEL,rat [10]; [27],> 100 mg/kg/day
same,NEL,rat [10]; [27],10 mg/kg/day
same,NOAEL,rat [10]; [27],≥ 100 mg/kg/day
same,LEL,rat [11]; [28],100 mg/kg/day
same,NEL,rat [11]; [28],< 100 mg/kg/day
same,LOAEL,rat [11]; [29],> 200 mg/kg/day
same,NOAEL,rat [11]; [29],≥ 200 mg/kg/day
same,LEL,rabbit [12]; systemic / in life observation / mortality / mortality,15 mg/kg/day
same,LOAEL,rabbit [12]; [30],> 50 mg/kg/day
same,NEL,rabbit [12]; [30],5 mg/kg/day
same,NOAEL,rabbit [12]; [30],≥ 50 mg/kg/day
same,LEL,rat [13]; [28],50 mg/kg/day
same,NEL,rat [13]; [28],10 mg/kg/day
same,LOAEL,rat [13]; [31],> 400 mg/kg/day
same,NOAEL,rat [13]; [31],≥ 400 mg/kg/day
same,LEL,rat [14]; systemic / clinical chemistry / 5' nucleotidase / 5' nucleotidase + systemic / clinical chemistry / aspartate aminotransferase (ast/sgot) / …,30 mg/kg/day
same,LOAEL,rat [14]; [32],> 150 mg/kg/day
same,NOAEL,rat [14]; [32],≥ 150 mg/kg/day
same,LEL,rat [15]; [26],150 mg/kg/day
same,LOAEL,rat [15]; [26],> 150 mg/kg/day
same,NOAEL,rat [15]; [26],≥ 150 mg/kg/day
same,LEL,rat [15]; [33],75 mg/kg/day
same,LOAEL,rat [15]; [33],> 150 mg/kg/day
same,NEL,rat [15]; [33],15 mg/kg/day
same,NOAEL,rat [15]; [33],≥ 150 mg/kg/day
same,LEL,dog [16]; systemic / clinical chemistry / alkaline phosphatase (alp/alk) / alkaline phosphatase (alp/alk),10 mg/kg/day
same,LOAEL,dog [16]; [24],> 30 mg/kg/day
same,NOAEL,dog [16]; [24],≥ 30 mg/kg/day
same,LEL,dog [17]; [34],1 mg/kg/day
same,NEL,dog [17]; [34],< 1 mg/kg/day
same,LOAEL,dog [17]; [35],> 20 mg/kg/day
same,NOAEL,dog [17]; [35],≥ 20 mg/kg/day
same,LOAEL,rabbit [18]; [36],> 200 mg/kg/day
same,NEL,rabbit [18]; [36],20 mg/kg/day
same,NOAEL,rabbit [18]; [36],≥ 200 mg/kg/day
same,LEL,rabbit [18]; systemic / in life observation / body weight / body weight + systemic / in life observation / food consumption / food consumption,100 mg/kg/day
